Reference: patent US10851064B2, “ACSS2 inhibitors and methods of use thereof” (METABOMED LTD., priority 2017, dated 2020)
“And” between values parts separate entries of the source, which are not always exact repeats. Equal values may be shown once.

Tests used:
[1] = molecular target: T1, ACSS2 (Homo sapiens, UniProt Q9NR19); assay: biochemical
[2] = molecular target: T1, ACSS2; assay: cell-based
Protocol: Testing the inhibitory effect of compounds on the cellular activity of ACSS2 was done by tracing the incorporation of ^13C from ^13C-acetate into fatty-acids in MDA-MB-468 cells under hypoxic conditions of 1% 02. The assay was done for 5 hours in DMEM with 5.5 mM glucose, 1 mM sodium Pyruvate, 0.65 mM Glutamine, 3.5 ug/ml Biotin, 1% dialyzed serum, 0.5 mM 13C-acetate and with different concentrations of the inhibitors. At the end of the incubation, the cells were washed with cold PBS, harvested into glass tubes and undergo saponification. The level of ^13C incorporation into Palmitate was done by LC-MS analysis and the level of inhibition was calculated with PRISM software.

[3] = molecular target: T1, ACSS2; assay: cell-based; remark: listed apart in the source
Protocol: ACSS2 Cellular Activity Assay (Cellular IC50)
The cellular activity of ACSS2 was based on tracing the incorporation of carbons from ^13C-Acetate into fatty-acids.
BT474/MDA-MB-468 cells growing in DMEM+25 mM D-glucose+1 mM sodium pyruvate+10% FBS+2 mM glutamine were plated in 12-well plates at 0.4×10^6 cells/well. The cells were then incubated at CO2 incubator for 24 hrs at hypoxic conditions (1% O2) before treated with compounds. At day 2, the medium was replaced to DMEM medium containing 15 mM Glucose, 1 mM Pyruvate, 0.65 mM Glutamine, 1% Dialyzed serum, 3.5 ug/ml Biotin, 0.2 mM ^13C-Acetate and various concentrations of the compounds. The cells were incubated for 5 hours at CO2 incubator in hypoxic conditions (1% O2). At the end of the 5 hours' incubation, the cells were washed twice with cold PBS, harvested in 1 ml PBS and transfer into V-shaped HPLC glass vials and centrifuge for 10 min at 600 g at 4 C. The supernatant was removed, and the cells' pellets were stored at −80° C. until taken for saponification.
The cells pellets were resuspended with 0.5 ml of the 90% Methanol, 10% H2O, 0.3M NaOH mixture and incubated at 80° C. for 60 min. Following the incubation, 50 μl formic acid and 0.4 ml hexane were added and the mixture was vortexed for 2 minutes. The vials were left few minutes for phases separation and then 200 μl of the top hexane phase extracted to a new glass vial. The hexane was dried under nitrogen and reconstituted in 100 μl of Methanol:Acetonitrile 5:3 mixture. The solution transferred to Eppendorf tubes, spun down at 17000 G for 20 min and transferred to LC-MS vials.
The analysis was performed with Thermo Q Exactive mass spectrometer with HESI probe and Dionex Ultimate 3000 UHPLC system. The separations were performed on Phenomenex Kintex 2.6u XB-C18 100A 150×2.10 mm column by injecting 5 ul of each sample. The chromatography started with a linear gradient from 85% to 100% of organic solvent (Methanol:Acetonitrile 1:1) versus 10 mM Ammonium Acetate buffer pH 4.7 for 3.5 minutes, followed by 4.5 minutes of isocratic 100% organic solvent and then 3 minutes of isocratic initial conditions, at a flow rate of 0.3 ul/min. The MS source conditions that were used: capillary temperature 325° C., sheath flow 25, aux flow 15, spray voltage 3.8 kV, aux temperature 300° C. The data collected from Negative ion mode at resolution of 70000 at Full-MS mode in 75-1000 m/z range.
The analysis of ^13C acetate incorporation into fatty acids (palmitate, myristate and stearate) performed on TraceFinder 3.2.512.0. The negative control areas and ^13C isotopic theoretical natural abundance were subtracted from the samples areas. Total ^13C incorporation for each fatty-acid (palmitate, myristate and stearate) was calculated and presented as percentage of the total amount.

T1 sequence (Q9NR19 whole entry): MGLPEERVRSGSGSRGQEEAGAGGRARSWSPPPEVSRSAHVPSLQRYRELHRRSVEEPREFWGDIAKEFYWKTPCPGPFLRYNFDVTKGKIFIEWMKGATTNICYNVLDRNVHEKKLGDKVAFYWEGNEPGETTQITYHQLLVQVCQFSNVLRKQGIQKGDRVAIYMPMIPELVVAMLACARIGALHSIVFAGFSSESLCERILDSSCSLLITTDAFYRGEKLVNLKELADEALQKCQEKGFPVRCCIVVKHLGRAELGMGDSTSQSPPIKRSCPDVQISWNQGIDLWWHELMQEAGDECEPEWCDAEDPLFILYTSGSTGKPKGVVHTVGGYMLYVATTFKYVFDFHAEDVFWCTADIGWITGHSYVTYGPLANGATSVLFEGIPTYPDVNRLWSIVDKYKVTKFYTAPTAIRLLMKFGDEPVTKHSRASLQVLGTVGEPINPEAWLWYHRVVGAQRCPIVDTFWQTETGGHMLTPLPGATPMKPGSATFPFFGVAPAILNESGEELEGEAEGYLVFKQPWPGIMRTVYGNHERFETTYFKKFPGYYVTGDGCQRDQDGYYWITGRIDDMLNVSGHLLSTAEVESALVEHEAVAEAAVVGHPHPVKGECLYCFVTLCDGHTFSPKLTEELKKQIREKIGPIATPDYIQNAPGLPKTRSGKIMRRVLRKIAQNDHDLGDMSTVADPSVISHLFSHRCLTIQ

Row | SMILES | IC50 [1] | IC50 [2] | IC50 [3]
1 | COc1ccc(N2N=C(C)C(C(=O)Nc3cccc(-c4ncc[nH]4)c3)C2=O)cc1 (stereo not shown) [compound 255] | 6 to 100 nM | > 100 nM | 
2 | CC1=NN(c2cccc(-c3ncco3)c2)C(=O)C1C(=O)Nc1cccc(-c2ncc[nH]2)c1 (stereo not shown) [compound 279] | 6 to 100 nM | > 100 nM | 
3 | CCCC(=O)c1cccc(NC(=O)C2C(=O)N(c3ccccc3)N=C2C)c1 (stereo not shown) [compound 114, N-(3-butyrylphenyl)-3-methyl-5-oxo-1-phenyl-4,5-dihydro-1H-pyrazole-4-carboxamide] | 6 to 100 nM |  | ≥ 1000 nM and 100 to 1000 nM
4 | CC1=NN(c2cccc(C(F)(F)F)c2)C(=O)C1C(=O)Nc1cccc(-c2ncco2)c1 (stereo not shown) [compound 257] | 6 to 100 nM | > 100 nM | 
5 | CC1=NN(c2cccc(S(=O)(=O)N(C)C)c2)C(=O)C1C(=O)Nc1cccc(C(C)(F)F)c1 (stereo not shown) [compound 252] | 0.01 to 6 nM | 50 to 100 nM | 
6 | CC1=NN(c2ccc(-c3nnn[nH]3)cc2)C(=O)C1C(=O)Nc1cccc(C(C)(F)F)c1 (stereo not shown) [compound 297] | 0.01 to 6 nM | > 100 nM | 
7 | COC(=O)c1cccc(N2N=C(C)C(C(=O)Nc3cccc(C(C)(F)F)c3)C2=O)c1 (stereo not shown) [compound 261] | 0.01 to 6 nM | 0.5 to 50 nM | 
8 | COc1cccc(N2N=C(C)C(C(=O)Nc3cccc(-c4ncc[nH]4)c3)C2=O)c1 (stereo not shown) [compound 248] | 0.01 to 6 nM | > 100 nM | 
9 | COc1ccc(N2N=C(C)C(C(=O)Nc3cccc(-c4cnccn4)c3)C2=O)cn1 (stereo not shown) [compound 243] | 0.01 to 6 nM | > 100 nM | 
10 | CC1=NN(c2cccc(-c3ncco3)c2)C(=O)C1C(=O)Nc1cccc(-c2cnccn2)c1 (stereo not shown) [compound 227] | 0.01 to 6 nM | 50 to 100 nM | 
11 | COc1ccc(N2N=C(C)C(C(=O)Nc3cccc(-c4ncc[nH]4)c3)C2=O)cn1 (stereo not shown) [compound 244] | 6 to 100 nM | > 100 nM | 
12 | COC(=O)c1cccc(N2N=C(C)C(C(=O)Nc3cccc(-c4ncc[nH]4)c3)C2=O)c1 (stereo not shown) [compound 167] | 0.01 to 6 nM | > 100 nM | 
13 | CC1=NN(c2ccncc2)C(=O)C1C(=O)Nc1cccc(C(C)(F)F)c1 (stereo not shown) [compound 231] | 6 to 100 nM | > 100 nM | 
14 | COC(=O)c1cccc(N2N=C(C)C(C(=O)Nc3cccc(-c4ncco4)c3)C2=O)c1 (stereo not shown) [compound 259] | 6 to 100 nM | > 100 nM | 
15 | CC1=NN(c2ccc(C(F)(F)F)cc2)C(=O)C1C(=O)Nc1cccc(C(C)(F)F)c1 (stereo not shown) [compound 264] | 0.01 to 6 nM | 0.5 to 50 nM | 
16 | CC1=NN(c2cccc(C(=O)OC(C)C)c2)C(=O)C1C(=O)Nc1cccc(-c2cnccn2)c1 (stereo not shown) [compound 234] | 0.01 to 6 nM | > 100 nM | 
17 | COc1ccc(N2N=C(C)C(C(=O)Nc3cccc(C(C)(F)F)c3)C2=O)c(C(C)(C)C)c1 (stereo not shown) [compound 305] |  | > 100 nM | 
18 | CC1=NN(c2cccc(C(F)(F)F)c2)C(=O)C1C(=O)Nc1cccc(-c2ncc[nH]2)c1 (stereo not shown) [compound 149, N-(3-(1H-imidazol-2-yl)phenyl)-3-methyl-5-oxo-1-(3-(trifluoromethyl)phenyl)-4,5-dihydro-1H-pyrazole-4-carboxamide] | 6 to 100 nM | > 100 nM | 
19 | CC(=O)c1cccc(NC(=O)C2C(=O)N(c3ccccc3)N=C2C)c1 (stereo not shown) [compound 183, N-(3-acetylphenyl)-3-methyl-5-oxo-1-phenyl-4,5-dihydro-1H yrazole-4-carboxamide] | 6 to 100 nM |  | ≥ 1000 nM
20 | CC1=NN(c2cccc(-c3nnc(C)o3)c2)C(=O)C1C(=O)Nc1cccc(C(C)(F)F)c1 (stereo not shown) [compound 280] | 0.01 to 6 nM | 0.5 to 50 nM | 
21 | CC1=NN(c2ccc(OC(F)F)c(-c3ccncc3)c2)C(=O)C1C(=O)Nc1cccc(C(C)(F)F)c1 (stereo not shown) [compound 315] |  | 0.5 to 50 nM | 

Row | SMILES | IC50 [1] | IC50 [2] | IC50 [3]
22 | CC(=O)Cc1cccc(NC(=O)C2C(=O)N(c3ccccc3)N=C2C)c1 (stereo not shown) [compound 145, 3-methyl-5-oxo-N-(3-(2-oxopropyl)phenyl)-1-phenyl-4,5-dihydro-1H-pyrazole-4-carboxamide] | 0.01 to 6 nM | > 100 nM | 
23 | COc1cccc(N2N=C(C)C(C(=O)Nc3cccc(-c4ncco4)c3)C2=O)c1 (stereo not shown) [compound 251] | 6 to 100 nM | 50 to 100 nM | 
24 | CC1=NN(c2cccc(C(=O)OC(C)C)c2)C(=O)C1C(=O)Nc1cccc(C(C)(F)F)c1 (stereo not shown) [compound 236] | 0.01 to 6 nM | 0.5 to 50 nM | 
25 | COC(=O)c1cccc(N2N=C(C)C(C(=O)Nc3cccc(-c4cnccn4)c3)C2=O)c1 (stereo not shown) [compound 164] | 0.01 to 6 nM | > 100 nM | 
26 | CC1=NN(c2cccc(C(=O)O)c2)C(=O)C1C(=O)Nc1cccc(C(C)(F)F)c1 (stereo not shown) [compound 258] | 0.01 to 6 nM | > 100 nM | 
27 | COc1ccc(N2N=C(C)C(C(=O)Nc3cccc(C(C)(F)F)c3)C2=O)cc1C (stereo not shown) [compound 303] | 0.01 to 6 nM | 0.5 to 50 nM | 
28 | CC1=NN(c2ccc(OC(F)F)cc2)C(=O)C1C(=O)Nc1cc(C(C)(F)F)ccc1CO (stereo not shown) [compound 306] |  | 0.5 to 50 nM | 
29 | CC1=NN(c2cccc(-c3ncc(C)o3)c2)C(=O)C1C(=O)Nc1cccc(C(C)(F)F)c1 (stereo not shown) [compound 229] | 0.01 to 6 nM | > 100 nM | 
30 | CC1=NN(c2cccc(C(=O)OC(C)C)c2)C(=O)C1C(=O)Nc1cccc(-c2ncc[nH]2)c1 (stereo not shown) [compound 235] | 6 to 100 nM | > 100 nM | 
31 | CC1=NN(c2ccc(OC(F)F)c(-c3ccccc3)c2)C(=O)C1C(=O)Nc1cccc(C(C)(F)F)c1 (stereo not shown) [compound 312] |  | 50 to 100 nM | 
32 | CC1=NN(c2cccc(S(=O)(=O)N(C)C)c2)C(=O)C1C(=O)Nc1cccc(-c2ccco2)c1 (stereo not shown) [compound 263] | 6 to 100 nM | 0.5 to 50 nM | 
33 | COc1ccc(N2N=C(C)C(C(=O)Nc3cccc(C(C)(F)F)c3)C2=O)cc1-c1ncco1 (stereo not shown) [compound 301] | 0.01 to 6 nM | 0.5 to 50 nM | 
34 | COc1ccc(N2N=C(C)C(C(=O)Nc3cccc(C(C)(F)F)c3)C2=O)cc1-c1cccnc1 (stereo not shown) [compound 320] |  | 0.5 to 50 nM | 
35 | CCCOc1ccc(N2N=C(C)C(C(=O)Nc3cccc(C(C)(F)F)c3)C2=O)cc1 (stereo not shown) [compound 317] |  | 0.5 to 50 nM | 
36 | CC1=NN(c2cccc(-c3ncco3)c2)C(=O)C1C(=O)Nc1cccc(-c2ccco2)c1 (stereo not shown) [compound 228] | 0.01 to 6 nM | 0.5 to 50 nM | 
37 | COc1cccc(N2N=C(C)C(C(=O)Nc3cccc(-c4cnccn4)c3)C2=O)c1 (stereo not shown) [compound 249] | 0.01 to 6 nM | 0.5 to 50 nM | 
38 | CC1=NN(c2ccc(OC(F)F)c(-c3cccnc3)c2)C(=O)C1C(=O)Nc1cccc(C(C)(F)F)c1 (stereo not shown) [compound 310] |  | 0.5 to 50 nM | 
39 | COc1cccc(N2N=C(C)C(C(=O)Nc3cccc(-c4ccco4)c3)C2=O)c1 (stereo not shown) [compound 247] | 0.01 to 6 nM | 0.5 to 50 nM | 
40 | COc1ccc(N2N=C(C)C(C(=O)Nc3cccc(-c4cnccn4)c3)C2=O)cc1 (stereo not shown) [compound 241] | 0.01 to 6 nM | 50 to 100 nM | 
41 | CC1=NN(c2ccc(OC3CCCCC3)cc2)C(=O)C1C(=O)Nc1cccc(C(C)(F)F)c1 (stereo not shown) [compound 322] |  | 0.5 to 50 nM | 
42 | CC1=NN(c2cccc(C(=O)OC(C)C)c2)C(=O)C1C(=O)Nc1cccc(-c2ccco2)c1 (stereo not shown) [compound 237] | 6 to 100 nM | > 100 nM | 

More lines, now with the values ahead:

Row | IC50 [1] | IC50 [2] | IC50 [3] | SMILES
43 | 0.01 to 6 nM | 0.5 to 50 nM |  | COc1ccc(N2N=C(C)C(C(=O)Nc3cccc(-c4ccco4)c3)C2=O)cn1 (stereo not shown) [compound 246]
44 | 0.01 to 6 nM | 0.5 to 50 nM |  | CC1=NN(c2cccc(-c3nccn3C)c2)C(=O)C1C(=O)Nc1cccc(C(C)(F)F)c1 (stereo not shown) [compound 289]
45 | 0.01 to 6 nM | 0.5 to 50 nM |  | [2H]C([2H])([2H])Oc1ccc(N2N=C(C)C(C(=O)Nc3cccc(C(C)(F)F)c3)C2=O)cc1 (stereo not shown) [compound 286]
46 | 0.01 to 6 nM | 0.5 to 50 nM |  | COc1ccc(N2N=C(C)C(C(=O)Nc3cccc(C(C)(F)F)c3)C2=O)cc1OC (stereo not shown) [compound 287]
47 | 0.01 to 6 nM | 0.5 to 50 nM |  | CC1=NN(c2cccc(C(F)(F)F)c2)C(=O)C1C(=O)Nc1cccc(C(C)(F)F)c1 (stereo not shown) [compound 271]
48 | 0.01 to 6 nM | 0.5 to 50 nM |  | CC1=NN(c2ccc(OC(F)(F)F)c(-c3ncco3)c2)C(=O)C1C(=O)Nc1cccc(-c2ccco2)c1 (stereo not shown) [compound 292]
49 | 0.01 to 6 nM | 0.5 to 50 nM |  | CC1=NN(c2ccc(S(=O)(=O)N(C)C)cc2)C(=O)C1C(=O)Nc1cccc(C(C)(F)F)c1 (stereo not shown) [compound 253]
50 | 0.01 to 6 nM | 0.5 to 50 nM |  | CC1=NN(c2ccc(OC(F)(F)F)c(-c3ncco3)c2)C(=O)C1C(=O)Nc1cccc(C(C)(F)F)c1 (stereo not shown) [compound 291]
51 | 0.01 to 6 nM | 0.5 to 50 nM |  | COC(=O)c1cccc(N2N=C(C)C(C(=O)Nc3cccc(-c4ccco4)c3)C2=O)c1 (stereo not shown) [compound 269]
52 | 0.01 to 6 nM | 0.5 to 50 nM |  | CC1=NN(c2cccc(-c3ncco3)c2)C(=O)C1C(=O)Nc1cccc(C(C)(F)F)c1 (stereo not shown) [compound 230]
53 | 0.01 to 6 nM | 0.5 to 50 nM |  | COc1ccc(N2N=C(C)C(C(=O)Nc3cccc(-c4ccco4)c3)C2=O)cc1 (stereo not shown) [compound 266]
54 | 0.01 to 6 nM | 0.5 to 50 nM |  | COc1ccc(N2N=C(C)C(C(=O)Nc3cccc(C(C)(F)F)c3)C2=O)cc1-c1nccn1C (stereo not shown) [compound 300]
55 | 0.01 to 6 nM | 0.5 to 50 nM |  | CC1=NN(c2ccc(OC(F)F)cc2)C(=O)C1C(=O)Nc1cccc(C(C)(F)F)c1 (stereo not shown) [compound 298]
56 |  | 0.5 to 50 nM |  | COc1ccc(N2N=C(C)C(C(=O)Nc3cccc(C(C)(F)F)c3)C2=O)c(F)c1 (stereo not shown) [compound 314]
57 | 0.01 to 6 nM | 0.5 to 50 nM |  | COc1ccc(N2N=C(C)C(C(=O)Nc3cccc(C(C)(F)F)c3)C2=O)cn1 (stereo not shown) [compound 242]
58 | 0.01 to 6 nM | 0.5 to 50 nM |  | COc1cccc(N2N=C(C)C(C(=O)Nc3cccc(C(C)(F)F)c3)C2=O)c1 (stereo not shown) [compound 250]
59 |  | 0.5 to 50 nM |  | COc1ccc(N2N=C(C)C(C(=O)Nc3cccc(C(C)(F)F)c3)C2=O)cc1-c1cncnc1 (stereo not shown) [compound 323]
60 | 0.01 to 6 nM | 0.5 to 50 nM |  | COc1ccc(N2N=C(C)C(C(=O)Nc3cccc(C(C)(F)F)c3)C2=O)nc1 (stereo not shown) [compound 304]
61 |  | 0.5 to 50 nM |  | COc1ccc(N2N=C(C)C(C(=O)Nc3cccc(C(C)(F)F)c3)C2=O)cc1-c1ccccn1 (stereo not shown) [compound 331]
62 |  | 0.5 to 50 nM |  | CCC(F)(F)c1cccc(NC(=O)C2C(=O)N(c3ccc(OC)cc3)N=C2C)c1 (stereo not shown) [compound 330]
